Reference: patent US10202380B2, “Pesticidally active tetracyclic derivatives with sulfur containing substituents” (Syngenta Participations AG, priority 2015, dated 2019)

Experiments:
Type in all cases: in vivo
Myzus persicae = Myzus persicae (Green Peach Aphid): Feeding/Contact Activity; conditions: foliar, 144 h
Method: Sunflower leaf discs were placed onto agar in a 24-well microtiter plate and sprayed with aqueous test solutions prepared from 10,000 ppm DMSO stock solutions. After drying, the leaf discs were infested with an aphid population of mixed ages. The samples were assessed for mortality 6 days after infestation.

Diabrotica balteata = Diabrotica balteata (Corn Root Worm); conditions: 96 h, read-out: effect in at least one of the two categories (mortality or growth inhibition)
Method: Maize sprouts placed onto an agar layer in 24-well microtiter plates were treated with aqueous test solutions prepared from 10,000 ppm DMSO stock solutions by spraying. After drying, the plates were infested with L2 larvae (6 to 10 per well). The samples were assessed for mortality and growth inhibition in comparison to untreated samples 4 days after infestation.

Euschistus heros = Euschistus heros (Neotropical Brown Stink Bug); conditions: in Glycine max, 120 h, read-out: effect in at least one of the two categories (mortality or growth inhibition)
Method: Soybean leaves on agar in 24-well microtiter plates were sprayed with aqueous test solutions prepared from 10,000 ppm DMSO stock solutions. After drying the leaves were infested with N2 nymphs. The samples were assessed for mortality and growth inhibition in comparison to untreated samples 5 days after infestation.

Plutella xylostella = Plutella xylostella (Diamond Back Moth); conditions: 120 h, read-out: effect in at least one of the two categories (mortality or growth inhibition)
Method: 24-well microtiter plates with artificial diet were treated with aqueous test solutions prepared from 10,000 ppm DMSO stock solutions by pipetting. After drying, the plates were infested with L2 larvae (10 to 15 per well). The samples were assessed for mortality and growth inhibition in comparison to untreated samples 5 days after infestation.

Spodoptera littoralis [1] = experiment: Spodoptera littoralis (Egyptian Cotton Leaf Worm), compound in agar absorbed by lettuce roots; conditions: 144 h, read-out: effect in at least one of the three categories (mortality, anti-feeding, or growth inhibition)
Method: Test compounds were applied by pipette from 10,000 ppm DMSO stock solutions into 24-well plates and mixed with agar. Lettuce seeds were placed onto the agar and the multi well plate was dosed by another plate which contained also agar. After 7 days the compound was absorbed by the roots and the lettuce grew into the lid plate. The lettuce leaves were then cut off into the lid plate. Spodoptera eggs were pipetted through a plastic stencil onto a humid gel blotting paper and the lid plate was closed with it. The samples were assessed for mortality, anti-feedant effect and growth inhibition in comparison to untreated samples 6 days after infestation.

Spodoptera littoralis [2] = experiment: Spodoptera littoralis (Egyptian Cotton Leaf Worm), sprayed cotton leaf discs; conditions: foliar, 72 h, read-out: control (mortality, anti-feedant effect, growth inhibition)
Method: Cotton leaf discs were placed onto agar in 24-well microtiter plates and sprayed with aqueous test solutions prepared from 10,000 ppm DMSO stock solutions. After drying the leaf discs were infested with five L1 larvae. The samples were assessed for mortality, anti-feeding effect, and growth inhibition in comparison to untreated samples 3 days after infestation. Control of Spodoptera littoralis by a test sample is given when at least one of the categories mortality, anti-feedant effect, and growth inhibition is higher than the untreated sample.

CCSc1c(-c2nc3cc(C(F)(F)F)n(CC)c(=O)c3n2C)sc2ccccc12 [Compound A1, 5-ethyl-2-(3-ethylsulfanylbenzothiophen-2-yl)-3-methyl-6-(trifluoromethyl)imidazo[4,5-c]pyridin-4-one]
≥ 80%: mortality at 200 ppm (Myzus persicae) | percent control (mortality or growth inhibition) at 200 ppm (Diabrotica balteata) | percent control (mortality or growth inhibition) at 200 ppm (Euschistus heros) | percent control (mortality or growth inhibition) at 200 ppm (Plutella xylostella)

CCn1c(C(F)(F)F)cc2nc(-c3sc4ccccc4c3S(=O)(=O)CC)n(C)c2c1=O [Compound A2, 5-ethyl-2-(3-ethylsulfonylbenzothiophen-2-yl)-3-methyl-6-(trifluoromethyl)imidazo[4,5-c] pyridin-4-one]
≥ 80%: percent control (mortality, anti-feedant effect or growth inhibition) at 12.5 ppm (Spodoptera littoralis [1]) | mortality at 200 ppm (Myzus persicae) | mortality at 200 ppm (Spodoptera littoralis [2]) | percent control (mortality or growth inhibition) at 200 ppm (Diabrotica balteata) | percent control (mortality or growth inhibition) at 200 ppm (Euschistus heros) | percent control (mortality or growth inhibition) at 200 ppm (Plutella xylostella)
